Test system: MM1.s
Experiment: MTT viability assay, MM1.s
Assay type: cell-based
Details: Homo sapiens, Multiple Myeloma, read-out: IC50 Avg ± s.d. (n = 3), MM1.s
Excerpt: Cell Lines: PC-9 cell line used was obtained from Sigma Aldrich and grown in RPMI 1640 medium with 10% fetal bovine serum and 1% penicillin/streptomycin. HCC4006, U266, MM1.s, and Beas-2B cell lines were obtained from ATCC and cultured in either RPMI 1640 or DMEM with 10% fetal bovine serum and 1% penicillin/streptomycin. All cell lines were also checked for mycoplasma every six months and subjected to short tandem repeat (STR) analysis for cell line validation. CRISPR Cas9: CRISPR Guide RNA 2 targeting ERO1α and CRISPR Guide RNA 4 were purchased from Genscript in the pLentiCRISPR V2 plasmid containing puromycin/ampicillin selection marker. Lentivirus was made from HEK 293T cells by co-transfection with GuideRNA of interest, pVSVG, and pPAX2 plasmids. […] Plate was then read on the BioTek Cytation 5 at 530/590 nm. […] Plate was then read at 570 nm. Treated wells were all compared to DMSO control wells to calculate percent growth inhibition and the IC50 was calculated using GraphPad (log(inhibitor) vs growth inhibition). […] Images were then quantified using ImageJ. […] Cells were aliquoted at 1 million cells per PCR tube in PBS and heated in Bio-Rad T100 thermal cycler at indicated temperatures (RT, 46° C., 48° C., 50° C., 52° C., 54° C., 56°, 58° C., and 60° C.) for 3 minutes and aggregation temperature was determined by western blot analysis. […]

CN(C)c1ccc(/C=C2\Oc3cc(O)ccc3C2=O)cc1 [Compound T151742]
IC50: 7.45 ± 1.12 µM

Reference: US20250064773A1, “TARGETING ERO1 ALPHA WITH AURONE DERIVATIVES” (West Virginia University Board of Governors on behalf of …, priority 2021, published 2025)
